Experimental findings from PubChem BioAssay AID1918940 (Molecular Pharmacology Branch, DTP, NCI, 2023) are described below.

A word on the IC50: it is the concentration that gives 50% inhibition. Broadly, the viability, T/C is the result in the treated group divided by that in the control group, in per cent.

The test system of this assay is NCI-H211 complex spheroid viability. As to the kind of experiment: Anticancer human tumor NCI-H211 cell line growth inhibition [LSD1].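 For all read-outs here: luminescent viability read after seven days of drug exposure.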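 For viability, T/C: 100% = DMSO vehicle control viability.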 As to conditions: for viability, T/C: stronger effect = lower value. The method, boiled down: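 Multicellular complex spheroids of tumor cells with human endothelial cells (HUVEC) and mesenchymal stem cells; the LSD1 inhibitor iadademstat was combined with standard-of-care or investigational agents. Top concentration at or near clinical Cmax, half-log dilutions; final DMSO ≤0.25%.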

Where [1] appears, read: curve of first compound, second compound 0.1 µM.
The mark [2] stands for this setting: curve of first compound, second compound 0.316 µM.
The mark [3] stands for this setting: curve of first compound, second compound 1 µM.
[4] abbreviates: curve of first compound, second compound 3.16 µM.
Where [5] appears, read: curve of first compound, second compound 10 µM.
The mark [6] stands for this setting: second compound 0.1 µM, first compound 0.00949 µM.
Setting [7] is: second compound 0.1 µM, first compound 0.03 µM.
The mark [8] stands for this setting: second compound 0.1 µM, first compound 0.0949 µM.
Where [9] appears, read: second compound 0.1 µM, first compound 0.3 µM.
[10] abbreviates: second compound 0.316 µM, first compound 0.00949 µM.
Setting [11] is: second compound 0.316 µM, first compound 0.03 µM.
Setting [12] is: second compound 0.316 µM, first compound 0.0949 µM.
Setting [13] is: second compound 0.316 µM, first compound 0.3 µM.
The mark [14] stands for this setting: second compound 1 µM, first compound 0.00949 µM.
The mark [15] stands for this setting: second compound 1 µM, first compound 0.03 µM.
Where [16] appears, read: second compound 1 µM, first compound 0.0949 µM.
[17] abbreviates: second compound 1 µM, first compound 0.3 µM.
Where [18] appears, read: second compound 3.16 µM, first compound 0.00949 µM.
[19] abbreviates: second compound 3.16 µM, first compound 0.03 µM.
[20] abbreviates: second compound 3.16 µM, first compound 0.0949 µM.
Setting [21] is: second compound 3.16 µM, first compound 0.3 µM.
[22] abbreviates: second compound 10 µM, first compound 0.00949 µM.
Setting [23] is: second compound 10 µM, first compound 0.03 µM.
[24] abbreviates: second compound 10 µM, first compound 0.0949 µM.
[25] abbreviates: second compound 10 µM, first compound 0.3 µM.

Where “and” joins values, the source holds several entries; their conditions need not be identical. Equal entries are not always repeated.

As to `Nc1ccccc1NC(=O)c1ccc(CNC(=O)OCc2cccnc2)cc1` + NC1CC1c1ccc(-c2cccc(O)c2)cc1, the concentration for half-maximal inhibition (IC50) runs as follows: under setting [1], 12.2 nM; under setting [2], less than 9.49 nM; under setting [3], less than 9.49 nM; under setting [4], less than 9.49 nM; under setting [5], 12 nM. For the same molecule, the viability, T/C by setting is: under setting [6], 56.5%; under setting [7], 26.4%; under setting [8], 4.02%; under setting [9], 1.9%; (second compound 0.1 µM, first compound 0.949 µM) 1.18%; (second compound 0.1 µM, first compound 3 µM) 0.14%. Also, the viability, T/C is, setting by setting: under setting [10], 46.8%; under setting [11], 18.2%; under setting [12], 4.2%; under setting [13], 2.36%; (second compound 0.316 µM, first compound 0.949 µM) 1.27%; (second compound 0.316 µM, first compound 3 µM) 0.1%. Besides, the viability, T/C is 45.8% under setting [14]; 25.1% under setting [15]; 3.68% under setting [16]; 2.02% under setting [17]; 1.28% (second compound 1 µM, first compound 0.949 µM); 0.1% (second compound 1 µM, first compound 3 µM). Also, the viability, T/C is 43.4% under setting [18]; 24.5% under setting [19]; 4.34% under setting [20]; 3.1% under setting [21]; 1.14% (second compound 3.16 µM, first compound 0.949 µM); 0.14% (second compound 3.16 µM, first compound 3 µM). The viability, T/C under setting [22] was 53.6%; the viability, T/C under setting [23] was 36.1%; the viability, T/C under setting [24] was 5.02%; the viability, T/C under setting [25] was 2.76%; the viability, T/C (second compound 10 µM, first compound 0.949 µM) was 0.95%; the viability, T/C (second compound 10 µM, first compound 3 µM) was 0.16%.
Turning to `CCc1c2c(nc3ccc(O)cc13)-c1cc3c(c(=O)n1C2)COC(=O)[C@]3(O)CC` + NC1CC1c1ccc(-c2cccc(O)c2)cc1, the IC50 under setting [1] was less than 0.949 nM; the IC50 under setting [2] was less than 0.949 nM; the concentration for half-maximal inhibition (IC50) under setting [3] is less than 0.949 nM; the concentration for half-maximal inhibition (IC50) under setting [4] is less than 0.949 nM; the IC50 under setting [5] was less than 0.949 nM. In addition, the viability, T/C was 3.24% (second compound 0.1 µM, first compound 0.000949 µM); 1.7% (second compound 0.1 µM, first compound 0.003 µM); 2.13% under setting [6]; 0.66% under setting [7]; 0.05% under setting [8]; 0.14% under setting [9]. For the same molecule, the viability, T/C is 3.2% (second compound 0.316 µM, first compound 0.000949 µM); 1.12% (second compound 0.316 µM, first compound 0.003 µM); 1.18% under setting [10]; 1.44% under setting [11]; 0.05% under setting [12]; 0.15% under setting [13]. Besides, the viability, T/C runs as follows: (second compound 1 µM, first compound 0.000949 µM) 3.18%; (second compound 1 µM, first compound 0.003 µM) 1.68%; under setting [14], 1.11%; under setting [15], 0.97%; under setting [16], 0.04%; under setting [17], 0.16%. In addition, the viability, T/C reads like this: (second compound 3.16 µM, first compound 0.000949 µM) 2.71%; (second compound 3.16 µM, first compound 0.003 µM) 1.57%; under setting [18], 1.28%; under setting [19], 0.83%; under setting [20], 0.05%; under setting [21], 0.2%. Further, the viability, T/C is 2.86% (second compound 10 µM, first compound 0.000949 µM); 1.99% (second compound 10 µM, first compound 0.003 µM); 1.75% under setting [22]; 1.25% under setting [23]; 0.17% under setting [24]; 0.2% under setting [25].
In the case of `O=C(c1cc(Cc2n[nH]c(=O)c3ccccc23)ccc1F)N1CCN(C(=O)C2CC2)CC1`, the viability, T/C runs as follows: (compound 0.0316 µM) 59.8% and 54.5%; (compound 0.1 µM) 30.3% and 22.6%; (compound 0.316 µM) 6.95% and 9.45%; (compound 1 µM) 3.01% and 7.35%; (compound 3.16 µM) 2.95% and 7.77%; (compound 10 µM) 2.77% and 6.06%. Moreover, where the note is “curve of compound”, the IC50 is 46.4 nM and 36.9 nM.
In the case of `CC1COCCN1c1cc(C2(S(C)(=N)=O)CC2)nc(-c2ccnc3[nH]ccc23)n1` (centres undefined), the viability, T/C runs as follows: (compound 0.0316 µM) 84.3% and 102%; (compound 0.1 µM) 72.6% and 81.8%; (compound 0.316 µM) 49.4% and 63.4%; (compound 1 µM) 20.4% and 14.6%; (compound 3.16 µM) 4.23% and 5.02%; (compound 10 µM) 2.56% and 2.74%. In addition, the half-inhibitory concentration (IC50) (curve of compound) is 299 nM and 405 nM.
Take `Cn1ncnc1C1c2n[nH]c(=O)c3cc(F)cc(c23)NC1c1ccc(F)cc1` (centres undefined) + NC1CC1c1ccc(-c2cccc(O)c2)cc1: the half-inhibitory concentration (IC50) by setting is: under setting [1], 1.85 nM; under setting [2], 1.66 nM; under setting [3], 1.05 nM; under setting [4], 1.08 nM; under setting [5], 1.02 nM. For the same molecule, the viability, T/C (second compound 0.1 µM, first compound 0.000316 µM) is 64.8%; the viability, T/C (second compound 0.1 µM, first compound 0.001 µM) is 65.8%; the viability, T/C (second compound 0.1 µM, first compound 0.00316 µM) was 36.7%; the viability, T/C (second compound 0.1 µM, first compound 0.01 µM) was 6.78%; the viability, T/C (second compound 0.1 µM, first compound 0.0316 µM) was 5.16%; the viability, T/C (second compound 0.1 µM, first compound 0.1 µM) is 5.28%. Besides, the viability, T/C (second compound 0.316 µM, first compound 0.000316 µM) was 79.3%; the viability, T/C (second compound 0.316 µM, first compound 0.001 µM) was 66.8%; the viability, T/C (second compound 0.316 µM, first compound 0.00316 µM) is 28.5%; the viability, T/C (second compound 0.316 µM, first compound 0.01 µM) was 6.02%; the viability, T/C (second compound 0.316 µM, first compound 0.0316 µM) is 5.46%; the viability, T/C (second compound 0.316 µM, first compound 0.1 µM) was 4.84%. The viability, T/C is, setting by setting: (second compound 1 µM, first compound 0.000316 µM) 51.5%; (second compound 1 µM, first compound 0.001 µM) 51.6%; (second compound 1 µM, first compound 0.00316 µM) 23.6%; (second compound 1 µM, first compound 0.01 µM) 6.16%; (second compound 1 µM, first compound 0.0316 µM) 4.68%; (second compound 1 µM, first compound 0.1 µM) 4.9%. Moreover, the viability, T/C reads like this: (second compound 3.16 µM, first compound 0.000316 µM) 71.6%; (second compound 3.16 µM, first compound 0.001 µM) 50.8%; (second compound 3.16 µM, first compound 0.00316 µM) 26%; (second compound 3.16 µM, first compound 0.01 µM) 6.88%; (second compound 3.16 µM, first compound 0.0316 µM) 5.03%; (second compound 3.16 µM, first compound 0.1 µM) 5.16%. In addition, the viability, T/C is 48.5% (second compound 10 µM, first compound 0.000316 µM); 52.2% (second compound 10 µM, first compound 0.001 µM); 19.9% (second compound 10 µM, first compound 0.00316 µM); 6.25% (second compound 10 µM, first compound 0.01 µM); 5.22% (second compound 10 µM, first compound 0.0316 µM); 4.95% (second compound 10 µM, first compound 0.1 µM).
